The values that follow come from patent US7368578B2, “Five-membered heterocyclic compounds” (Takeda Pharmaceutical Company Limited, priority 2002, dated 2008).

As to `Cc1oc(-c2ccco2)nc1COc1ccc(COc2nn(Cc3ccccc3)cc2C=O)cc1` [Example 11, 1-benzyl-3-[(4{[2-(2-furyl)-5-methyl-1,3-oxazol-4-yl]methoxy}benzyl)oxy]-1H-pyrazole-4-carbaldehyde], the melting point was in the range of 118 to 119 °C.
`CCOC(=O)c1cn(Cc2ccccc2)nc1OCc1ccc(OCc2nc(-c3ccco3)oc2C)c(OC)c1` [Example 12, ethyl 1-benzyl-3-[(4-{[2-(2-furyl)-5-methyl-1,3-oxazol-4-yl]methoxy}-3-methoxybenzyl)oxy]-1H-pyrazole-4-carboxylate] gave a melting point of 117 to 118 °C.
The figure for `COc1cc(COc2nn(Cc3ccccc3)cc2C(=O)O)ccc1OCc1nc(-c2ccco2)oc1C` [Example 13, 1-benzyl-3-[(4-{[2-(2-furyl)-5-methyl-1,3-oxazol-4-yl]methoxy}-3-methoxybenzyl)oxy]-1H-pyrazole-4-carboxylic acid] is 167 to 168 °C; for `COc1cc(COc2nn(Cc3ccccc3)cc2C(N)=O)ccc1OCc1nc(-c2ccco2)oc1C` [Example 14, 1-benzyl-3-[(4-{[2-(2-furyl)-5-methyl-1,3-oxazol-4-yl]methoxy}-3-methoxybenzyl)oxy]-1H-pyrazole-4-carboxamide] it is 160 to 161 °C; for `COc1cc(COc2nn(Cc3ccccc3)cc2CO)ccc1OCc1nc(-c2ccco2)oc1C` [Example 15, (1-benzyl-3-[(4-{[2-(2-furyl)-5-methyl-1,3-oxazol-4-yl]methoxy)-3-methoxybenzyl)oxy]-1H-pyrazol-4-yl}methanol] it is 104 to 105 °C.
Compound `COc1cc(COc2nn(Cc3ccccc3)cc2C=O)ccc1OCc1nc(-c2ccco2)oc1C` [Example 16, 1-benzyl-3-[(4-{[2-(2-furyl)-5-methyl-1,3-oxazol-4-yl]methoxy}-3-methoxybenzyl)oxy]-1H-pyrazole-4-carbaldehyde] had a melting point of 139 to 140 °C.
`COc1cc(COc2nn(Cc3ccccc3)cc2C(C)O)ccc1OCc1nc(-c2ccco2)oc1C` (stereo not shown) [Example 18, 1-{1-benzyl-3-[(4-{[2-(2-furyl)-5-methyl-1,3-oxazol-4-yl]methoxy}-3-methoxybenzyl)oxy]-1H-pyrazol-4-yl}-1-ethanol] showed a melting point of 105 to 106 °C.
The value for `COc1cc(COc2nn(Cc3ccccc3)cc2C(C)=O)ccc1OCc1nc(-c2ccco2)oc1C` [Example 19, 1-{1-benzyl-3-[(4-{[2-(2-furyl)-5-methyl-1,3-oxazol-4-yl]methoxy}-3-methoxybenzyl)oxy]-1H-pyrazol-4-yl}-1-ethanone] was 144 to 145 °C; that for `CCOC(=O)c1cn(Cc2ccccc2)nc1OCc1ccc(OCc2nc(-c3ccccc3)oc2C)cc1` [Example 20, ethyl 1-benzyl-3-({4-[(5-methyl-2-phenyl-1,3-oxazol-4-yl)methoxy]benzyl}oxy)-1H-pyrazole-4-carboxylate] was 99 to 100 °C; that for `Cc1oc(-c2ccccc2)nc1COc1ccc(COc2nn(Cc3ccccc3)cc2C=O)cc1` [Example 22, 1-benzyl-3-[{4-[(5-methyl-2-phenyl-1,3-oxazol-4-yl)methoxy]benzyl}oxy]-1H-pyrazole-4-carbaldehyde] was 133 to 134 °C.
The figure for `CCOC(=O)c1cn(Cc2ccccc2)nc1OCc1cccc(OCc2nc(-c3ccccc3)oc2C)c1` [Example 23, ethyl 1-benzyl-3-({3-[(5-methyl-2-phenyl-1,3-oxazol-4-yl)methoxy]benzyl}oxy)-1H-pyrazole-4-carboxylate] is 95 to 96 °C; for `Cc1oc(-c2ccccc2)nc1COc1cccc(COc2nn(Cc3ccccc3)cc2C=O)c1` [Example 25, 1-benzyl-3-({3-[(5-methyl-2-phenyl-1,3-oxazol-4-yl)methoxy]benzyl}oxy)-1H-pyrazole-4-carbaldehyde] it is 131 to 132 °C; for `CCOC(=O)c1cn(Cc2ccccc2)nc1OCc1cccc(OCc2nc(-c3ccco3)oc2C)c1` [Example 26, ethyl 1-benzyl-3-[(3-{[2-(2-furyl)-5-methyl-1,3-oxazol-4-yl]methoxy}benzyl)oxy]-1H-pyrazole-4-carboxylate] it is 92 to 93 °C.
`Cc1oc(-c2ccco2)nc1COc1cccc(COc2nn(Cc3ccccc3)cc2C=O)c1` [Example 28, 1-benzyl-3-[(3-{[2-(2-furyl)-5-methyl-1,3-oxazol-4-yl]methoxy}benzyl)oxy]-1H-pyrazole-4-carbaldehyde] came in with a melting point of 135 to 136 °C.
Compound `CCOC(=O)c1cn(Cc2ccccc2)nc1OCc1ccc(OCc2nc(-c3ccco3)oc2C)c(OCC)c1` [Example 29, ethyl 1-benzyl-3-[(3-ethoxy-4-{[2-(2-furyl)-5-methyl-1,3-oxazol-4-yl]methoxy}benzyl)oxy]-1H-pyrazole-4-carboxylate] yielded a melting point of 121 to 122 °C.
`CCOc1cc(COc2nn(Cc3ccccc3)cc2C=O)ccc1OCc1nc(-c2ccco2)oc1C` [Example 31, 1-benzyl-3-[(3-ethoxy-4-{[2-(2-furyl)-5-methyl-1,3-oxazol-4-yl]methoxy}benzyl)oxy]-1H-pyrazole-4-carbaldehyde] had a melting point of 144 to 145 °C.
The figure for `CCOC(=O)c1cn(Cc2ccccc2)nc1OCc1ccc(OC)c(OCc2nc(-c3ccco3)oc2C)c1` [Example 32, ethyl 1-benzyl-3-[(3-{[2-(2-furyl)-5-methyl-1,3-oxazol-4-yl]methoxy}-4-methoxybenzyl)oxy]-1H-pyrazole-4-carboxylate] is 147 to 148 °C; for `COc1ccc(COc2nn(Cc3ccccc3)cc2C=O)cc1OCc1nc(-c2ccco2)oc1C` [Example 34, 1-benzyl-3-[(3-{[2-(2-furyl)-5-methyl-1,3-oxazol-4-yl]methoxy}-4-methoxybenzyl)oxy]-1H-pyrazole-4-carbaldehyde] it is 142 to 143 °C; for `CCOC(=O)c1cn(Cc2ccccc2)nc1OCc1ccc(OCc2nc(-c3ccco3)oc2C)c(Cl)c1` [Example 35, ethyl 1-benzyl-3-[(3-chloro-4-{[2-(2-furyl)-5-methyl-1,3-oxazol-4-yl]methoxy}benzyl)oxy]-1H-pyrazole-4-carboxylate] it is 153 to 154 °C.
The value for `Cc1oc(-c2ccco2)nc1COc1ccc(COc2nn(Cc3ccccc3)cc2C=O)cc1Cl` [Example 37, 1-benzyl-3-[(3-chloro-4-{[2-(2-furyl)-5-methyl-1,3-oxazol-4-yl]methoxy}benzyl)oxy]-1H-pyrazole-4-carbaldehyde] was 158 to 159 °C; that for `Cc1oc(-c2ccco2)nc1COc1ccc(COc2nn(Cc3ccccc3)cc2C(=O)O)cc1Cl` [Example 38, 1-benzyl-3-[(3-chloro-4-{[2-(2-furyl)-5-methyl-1,3-oxazol-4-yl]methoxy}benzyl)oxy]-1H-pyrazole-4-carboxylic acid] was 191 to 192 °C; that for `CCOC(=O)c1cn(Cc2ccccc2)nc1OCc1ccc(OCc2nc(-c3ccco3)oc2C)c(OCOC)c1` [Example 39, ethyl 1-benzyl-3-[(4-{[2-(2-furyl)-5-methyl-1,3-oxazol-4-yl]methoxy}-3-(methoxymethoxy)benzyl)oxy]-1H-pyrazole-4-carboxylate] was 120 to 121 °C.
The figure for `CCOC(=O)c1cn(Cc2ccccc2)nc1OCc1ccc(OCc2nc(-c3ccco3)oc2C)nc1` [Example 40, ethyl 1-benzyl-3-[(6-{[2-(2-furyl)-5-methyl-1,3-oxazol-4-yl]methoxy}-3-pyridinyl)methoxy]-1H-pyrazole-4-carboxylate] is 140 to 141 °C; for `Cc1oc(-c2ccco2)nc1COc1ccc(COc2nn(Cc3ccccc3)cc2C(=O)O)cn1` [Example 43, 1-benzyl-3-[(6-{[2-(2-furyl)-5-methyl-1,3-oxazol-4-yl]methoxy}-3-pyridinyl)methoxy]-1H-pyrazole-4-carboxylic acid] it is 151 to 152 °C; for `COCOc1cc(COc2nn(Cc3ccccc3)cc2C=O)ccc1OCc1nc(-c2ccco2)oc1C` [Example 45, 1-benzyl-3-([4-{[2-(2-furyl)-5-methyl-1,3-oxazol-4-yl]methoxy}-3-(methoxymethoxy)benzyl]oxy)-1H-pyrazole-4-carbaldehyde] it is 141 to 142 °C.
`CCOC(=O)c1cn(Cc2ccccc2)nc1OCc1ccc(OCc2nc(-c3ccco3)oc2C)c(O)c1` [Example 46, ethyl 1-benzyl-3-[(4-{[2-(2-furyl)-5-methyl-1,3-oxazol-4-yl]methoxy}-3-hydroxybenzyl)oxy]-1H-pyrazole-4-carboxylate] had a melting point of 134 to 135 °C.
The value for `CCOC(=O)c1cn(Cc2ccccc2)nc1OCc1ccc(OCc2nc(-c3ccco3)oc2C)c(OCc2ccccc2)c1` [Example 48, ethyl 1-benzyl-3-[(3-benzyloxy-4-{[2-(2-furyl)-5-methyl-1,3-oxazol-4-yl]methoxy}benzyl)oxy]-1H-pyrazole-4-carboxylate] was 127 to 128 °C; that for `Cc1oc(-c2ccco2)nc1COc1ccc(COc2nn(Cc3ccccc3)cc2C=O)cc1OCc1ccccc1` [Example 50, 1-benzyl-3-[(3-benzyloxy-4-{[2-(2-furyl)-5-methyl-1,3-oxazol-4-yl]methoxy}benzyl)oxy]-1H-pyrazole-4-carbaldehyde] was 130 to 131 °C.
The figure for `Cc1oc(-c2ccco2)nc1COc1ccc(COc2nn(Cc3ccccc3)cc2C(=O)O)cc1OCc1ccccc1` [Example 51, 1-benzyl-3-[(3-benzyloxy-4-{[2-(2-furyl)-5-methyl-1,3-oxazol-4-yl]methoxy}benzyl)oxy]-1H-pyrazole-4-carboxylic acid] is 184 to 185 °C; for `CCOC(=O)c1cn(Cc2ccccc2)nc1OCc1ccc(OCc2nc(-c3ccco3)oc2C)cc1OC` [Example 52, ethyl 1-benzyl-3-[(4-{[2-(2-furyl)-5-methyl-1,3-oxazol-4-yl]methoxy}-2-methoxybenzyl)oxy]-1H-pyrazole-4-carboxylate] it is 137 to 138 °C.
The figure for `COc1cc(OCc2nc(-c3ccco3)oc2C)ccc1COc1nn(Cc2ccccc2)cc1C=O` [Example 54, 1-benzyl-3-[(4-{[2-(2-furyl)-5-methyl-1,3-oxazol-4-yl]methoxy}-2-methoxybenzyl)oxy]-1H-pyrazole-4-carbaldehyde] is 147 to 148 °C.

As a reminder, the melting point is the temperature of the solid-liquid transition.
